Experimental findings from patent publication EP0206138A1, “Anthracycline compounds, a process for their preparation and their use as medicaments” (priority 1985, dated 1986) are described below.

One data set deals with P388 leukemia cells. Put plainly: Cytotoxicity on tissue culture: growth inhibition of cultured P388 leukemia cells. Format: cell-based. An excerpt: (1) Cytotoxicity (on tissue culture)
The barminomycin compounds of the present invention were capable of inhibiting the growth of cultured P388 leukemia cells in very low concentrations. […] For further detail, see the following table.

Data set [1] relates to Mycobacterium smegmatis 607. Description: Antimicrobial activity, MIC by agar dilution method. The format is cell-based. The conditions noted are these: Mycobacterium smegmatis 607, agar dilution method. On the procedure: (§1) The antimicrobial activities of barminomycin I and Ir of the present invention, and that of carminomycin III were determined by the agar dilution method.
For orientation: Agar dilution tests growth on a series of plates holding different concentrations.

For the next data set, the system named is E. coli BE1186. Described as above. Format: cell-based. The method, then:
as §1

The next data set deals with S. aureus MS9610. Described as above. Format: cell-based. The method, then:
as §1

Data set [2] concerns Pseudomonas aeruginosa A3. The data set is described as above. The format is cell-based. The method, then:
as §1

Data set [3] relates to Bacillus subtilis PCI 219. The description is as above. Format: cell-based. The conditions noted are these: Bacillus subtilis PCI 219, agar dilution method. The method, then:
as §1

The subject of the next data set is S. aureus MS8710. The data set is described as above. The format is cell-based. On the procedure:
as §1

For the next data set, the system named is E. coli NIHJ. The description is as above. Format: cell-based. On the procedure: as §1
Another data set concerns Proteus vulgaris OX19. The data set is described as above. The format is cell-based. On the procedure:
as §1

The subject of another data set is E. coli BE1121. Described as above. The format is cell-based. The method, then:
as §1

For the next data set, the system named is S. aureus Smith. The description is as above. Format: cell-based. The method, then:
as §1

Data set [4] has as its system Klebsiella p eumoniae PCI 602. Described as above. The format is cell-based. The conditions noted are these: Klebsiella p eumoniae PCI 602, agar dilution method. On the procedure: as §1
In data set [5] the test system is Micrococcus Lysodeikticus IFO 3333. The description is as above. The format is cell-based. The conditions noted are these: Micrococcus Lysodeikticus IFO 3333, agar dilution method. On the procedure: as §1
For data set [6], the system named is Staphylococcus aureus FAD 209P. The description is as above. Format: cell-based. On the procedure:
as §1

The subject of a further data set is E. coli K-12. Described as above. The format is cell-based. The conditions noted are these: E. coli K-12, agar dilution method. On the procedure: as §1
The test system of the next data set is Serratia marcescens. Described as above. The format is cell-based. On the procedure: as §1
The test system of the next data set is L1210 leukemia cells. Put plainly: Anti-tumor activity: L1210 leukemia transplanted intraperitoneally into CDF1 mice, life prolongation. The format is in vivo. The conditions noted are these: for percentage life prolongation (T/C%): saline control = 100; for intoxication: L1210-bearing CDF1 mice. On the procedure:
L1210 leukemia cells (1 x 10^5 per animal) were transplanted intraperitoneally into CDF1 mice. Immediately after the transplantation, 0.25 ml of a selected test compound in solution was administered intraperitoneally in accordance with the schedule shown below. The anti-tumor activities of the test compounds in terms of percentage life prolongation (T/C%) are listed in the same table, with the number of days of survival of control mice to which physiological saline had been administered being taken as 100 (day 0 means the day of L1210 transplantation).

The mark [7] stands for this setting: 0.0078 µg/mouse/day intraperitoneally, 0 - 10 days (daily).
Where [8] appears, read: 0.0157 µg/mouse/day intraperitoneally, 0 - 10 days (daily).
[9] abbreviates: 0.0625 µg/mouse/day intraperitoneally, 0 - 10 days (daily).
[10] abbreviates: 0.125 µg/mouse/day intraperitoneally, 0 - 10 days (daily).
Where [11] appears, read: 0.25 µg/mouse/day intraperitoneally, 0 - 10 days (daily).
The mark [12] stands for this setting: 1.25 µg/mouse/day intraperitoneally, 0 - 9 days (daily).
Setting [13] is: 2.5 µg/mouse/day intraperitoneally, 0 - 9 days (daily).
The mark [14] stands for this setting: 5 µg/mouse/day intraperitoneally, 0 - 9 days (daily).
[15] abbreviates: 10 µg/mouse/day intraperitoneally, 0 - 9 days (daily).
Setting [16] is: 20 µg/mouse/day intraperitoneally, 0 - 9 days (daily).
The mark [17] stands for this setting: 40 µg/mouse/day intraperitoneally, 0 - 9 days (daily).

In brackets after ≈: the same amount, converted by molar mass. Several values for one entry are separate records, joined by “and”; a condition that tells them apart may be missing. Equal values may be shown once. Read-outs that look alike come from different tables or passages of the source.

For `COc1cccc2c1C(=O)c1c(O)c3c(c(O)c1C2=O)C[C@@](O)(C(=O)CO)C[C@@H]3O[C@H]1C[C@H](N)[C@H](O)[C@H](C)O1` [Adriamycin, adriamycin, reference compound], the IC50 in the data set on P388 leukemia cells (Mus musculus, read-out: IC50) was 0.013 µg/mL (≈ 0.0239 µM).
`CC(=O)C1(O)Cc2c(O)c3c(c(O)c2C(OC2CC4N=CC(C)OC(CC(C)O)OC4C(C)O2)C1)C(=O)c1c(O)cccc1C3=O` (centres unmarked) [Barminomycin I]: the minimum inhibitory concentration (MIC) in data set [1] is 0.78 µg/mL (≈ 1.22 µM); with E. coli BE1186, <0.1 µg/mL; in the data set on S. aureus MS9610, 0.2 µg/mL (≈ 0.313 µM); in data set [2] it was 1.56 µg/mL (≈ 2.44 µM); in data set [3], <0.1 µg/mL; against S. aureus MS8710, 0.2 µg/mL (≈ 0.313 µM). In addition, the MIC in the data set with E. coli NIHJ was 3.12 µg/mL (≈ 4.88 µM); with Proteus vulgaris OX19 it was 3.12 µg/mL (≈ 4.88 µM); against E. coli BE1121 it was <0.1 µg/mL; in the data set on S. aureus Smith it was 0.2 µg/mL (≈ 0.313 µM); in [4], 0.39 µg/mL (≈ 0.61 µM); in data set [5], 0.2 µg/mL (≈ 0.313 µM). Further, the MIC in data set [6] came out at 0.2 µg/mL (≈ 0.313 µM); in the data set with E. coli K-12, 0.78 µg/mL (≈ 1.22 µM); against Serratia marcescens it was 0.78 µg/mL (≈ 1.22 µM). The IC50 with P388 leukemia cells is ~ 0.00001 µg/mℓ. For the same compound, the “percentage life prolongation (T/C%)” value in the data set with L1210 leukemia cells (setting [7]) was 160%; with L1210 leukemia cells (setting [8]) it was 187% and 120%; in the data set on L1210 leukemia cells (setting [9]) it was 213% and 147%; in the data set with L1210 leukemia cells (setting [10]), 147%; in the data set with L1210 leukemia cells (setting [11]), 120%. In addition, the intoxication entry was “tendency of intoxication” in the data set on L1210 leukemia cells (setting [10]) and “Intoxicated to death at 4 days” in the data set on L1210 leukemia cells (setting [11]).
On to `CC(=O)C1(O)Cc2c(O)c3c(c(O)c2C(OC2CC4NCC(C)OC(CC(C)O)OC4C(C)O2)C1)C(=O)c1c(O)cccc1C3=O` (single isomer, unassigned) [Barminomycin Ir], for which the minimum inhibitory concentration (MIC) in data set [1] is 6.25 µg/mL (≈ 9.74 µM); in the data set on E. coli BE1186, 0.2 µg/mL (≈ 0.312 µM); against S. aureus MS9610, 1.56 µg/mL (≈ 2.43 µM); in [2] it was 12.5 µg/mL (≈ 19.5 µM); in data set [3], 0.39 µg/mL (≈ 0.608 µM); against S. aureus MS8710, 1.56 µg/mL (≈ 2.43 µM). In addition, the MIC in the data set with E. coli NIHJ is 50 µg/mL (≈ 77.9 µM); in the data set on Proteus vulgaris OX19, >50 µg/mL; with E. coli BE1121 it was 0.2 µg/mL (≈ 0.312 µM); against S. aureus Smith it was 0.78 µg/mL (≈ 1.22 µM); in [4], 6.25 µg/mL (≈ 9.74 µM); in data set [5], 0.78 µg/mL (≈ 1.22 µM). For the same compound, the MIC in [6] is 0.78 µg/mL (≈ 1.22 µM); in the data set on E. coli K-12, 6.25 µg/mL (≈ 9.74 µM); with Serratia marcescens it was 3.12 µg/mL (≈ 4.86 µM). Moreover, the IC50 in the data set on P388 leukemia cells came to 0.0015 µg/mL (≈ 0.00234 µM). For the same compound, the “percentage life prolongation (T/C%)” value in the data set on L1210 leukemia cells (setting [12]) amounted to 97%; in the data set with L1210 leukemia cells (setting [13]) it was 129%; in the data set on L1210 leukemia cells (setting [14]), 141%; in the data set on L1210 leukemia cells (setting [15]), 49%; in the data set on L1210 leukemia cells (setting [16]), 37%; in the data set with L1210 leukemia cells (setting [17]) it was 25%. The intoxication entry is “Tendency of intoxication” in the data set on L1210 leukemia cells (setting [15]), “Intoxication” in the data set on L1210 leukemia cells (setting [16]) and “Intoxication” in the data set on L1210 leukemia cells (setting [17]).
In the data set on P388 leukemia cells, `CC(=O)C1(O)Cc2c(O)c3c(c(O)c2C(OC2CC(N)C(OC(CC(C)O)OC(C)CO)C(C)O2)C1)C(=O)c1c(O)cccc1C3=O` (centres unmarked) [Carminomycin II, carminomycin II, reference compound] displayed an IC50 of 0.010 µg/mL (≈ 0.0152 µM).
For `CC(=O)C1(O)Cc2c(O)c3c(c(O)c2C(OC2CC4N=CC(C)OC(CC(C)O)OC4C(C)O2)C1)C(=O)c1c(O)cccc1C3=O` (single isomer, unassigned) [Barminomycin II], in the data set with P388 leukemia cells, the 50% inhibitory concentration (IC50) is on record as ~ 0.00002 µg/mℓ. For the same compound, the “percentage life prolongation (T/C%)” value was >500%, >500% with L1210 leukemia cells (setting [7]); 120% with L1210 leukemia cells (setting [8]); 173% in the data set on L1210 leukemia cells (setting [10]); 140% in the data set with L1210 leukemia cells (0.313 µg/mouse/day intraperitoneally, 0 - 10 days (daily)). In addition, the intoxication entry in the data set with L1210 leukemia cells (setting [9]) was “tendency of intoxication”; in the data set with L1210 leukemia cells (setting [10]) it was “tendency of intoxication”; in the data set with L1210 leukemia cells (setting [11]), “Intoxicated to death at 4 days, and 5 days”.
carminomycin III [reference compound]: the MIC in data set [1] is 6.25 µg/mL; in the data set on S. aureus MS9610 it was 1.56 µg/mL; in data set [2], >50 µg/mL; in data set [3] it was 1.56 µg/mL; against S. aureus MS8710 it was 1.56 µg/mL; in the data set with E. coli NIHJ, >50 µg/mL. The MIC against Proteus vulgaris OX19 was >50 µg/mL; with E. coli BE1121, 1.56 µg/mL; in the data set on S. aureus Smith, 3.12 µg/mL; in [4], 50 µg/mL; in data set [5], 1.56 µg/mL; in [6], 3.12 µg/mL. Besides, the figures for the minimal inhibitory concentration (MIC) with E. coli K-12 and against Serratia marcescens were >50 µg/mL and 25 µg/mL, respectively. The IC50 in the data set with P388 leukemia cells turned out to be 0.006 µg/mL.
Turning to `CC(=O)[C@]1(O)Cc2c(O)c3c(c(O)c2[C@@H](O[C@H]2C[C@H](N)[C@H](O)[C@H](C)O2)C1)C(=O)c1c(O)cccc1C3=O` [Carminomycin I, carminomycin I, reference compound], the IC50 in the data set with P388 leukemia cells (Mus musculus, read-out: IC50) was 0.002 µg/mL (≈ 0.00389 µM).
The compound `CC(=O)C1(O)Cc2c(O)c3c(c(O)c2C(OC2CC4NCC(C)OC(CC(C)O)OC4C(C)O2)C1)C(=O)c1c(O)cccc1C3=O` (single isomer, unassigned) [Barminomycin IIr] had an IC50 in the data set with P388 leukemia cells of 0.002 µg/mL (≈ 0.00312 µM). The “percentage life prolongation (T/C%)” value in the data set with L1210 leukemia cells (setting [12]) came to 123%; in the data set on L1210 leukemia cells (setting [13]), 129%; in the data set on L1210 leukemia cells (setting [14]), 123%; with L1210 leukemia cells (setting [15]), 86%; in the data set on L1210 leukemia cells (setting [16]) it was 43%; with L1210 leukemia cells (setting [17]), 37%. Besides, the intoxication entry in the data set on L1210 leukemia cells (setting [16]) and with L1210 leukemia cells (setting [17]) was “Intoxication” each time.

One may read the IC50 as the midpoint of a concentration-inhibition curve. The MIC is the smallest concentration in the dilution series that meets the test's criterion for growth inhibition. Read a low MIC as greater potency.
